According to patent US20250281464A1, “TREATMENT OF PATHOGENIC NEISSERIA SP. INFECTION WITH TRIAZOLE ANTIFUNGAL AGENTS” (Virginia Tech Intellectual Properties, Inc., priority 2022, published 2025):
≈ marks a conversion by molar mass, not a printed value. Like-named read-outs stand apart in the source and are kept apart here.

Columns and labels:
L. gasseri = assay: MIC against commensal vaginal Lactobacillus strains; type: cell-based, Lactobacillus gasseri; settings: for MIC: Lactobacillus gasseri; for MIC Range: Table 6, L. gasseri (4 strains)
Excerpt: (§1) N. gonorrhoeae pathogenesis greatly depends on colonization of the reproductive tract. One of the natural barriers of such colonization is an intact healthy microbiome. Species of lactobacilli present in the genitourinary tract play a significant role in hindering colonization by Neisseria(1).
(§2) A healthy vaginal microbiome that is dominated by Lactobacillus spp. is less susceptible to N. gonorrhoeae infection and other sexually transmitted diseases (STDs). […] We tested the activity of azoles against important members of healthy vaginal microbiota that inhibit N. gonorrhoeae colonization.

N. mucosa = assay: MIC against Neisseria spp.; type: cell-based; settings: N. mucosa (1 strain)
Excerpt: (§3) Intrigued by the specificity and potent activity of azoles against N. gonorrhoeae, we evaluated the extent of the azoles' antibacterial activity against other Neisseria species (Table 8).

N. flavescens = assay: MIC against Neisseria spp.; type: cell-based; settings: N. flavescens (1 strain)
Excerpt: as §3

N. lactamica = assay: MIC against Neisseria spp.; type: cell-based; settings: N. lactamica (1 strain)
Excerpt: as §3

Bacteroides fragilis = assay: MIC against normal gut microbiota; type: cell-based; settings: Bacteroides fragilis (4 strains)
Excerpt: (§4) Disrupting the intestinal microbiota using broad-spectrum antimicrobial therapy increases the susceptibility of hosts to C. difficile colonization.

Lactobacillus casei = assay: MIC against normal gut microbiota; type: cell-based; settings: Lactobacillus casei (1 strain)
Excerpt: as §4

Staphylococcus aureus = assay: MIC against normal gut microbiota; type: cell-based; settings: Staphylococcus aureus (1 strain)
Excerpt: as §4

Enterococcus faecium = assay: MIC against normal gut microbiota; type: cell-based; settings: Enterococcus faecium (1 strain)
Excerpt: as §4

Lactobacillus rhamnosus = assay: MIC against normal gut microbiota; type: cell-based; settings: Lactobacillus rhamnosus (1 strain)
Excerpt: as §4

Enterococcus faecalis = assay: MIC against normal gut microbiota; type: cell-based; settings: Enterococcus faecalis (1 strain)
Excerpt: as §4

Bacteroides dorei = assay: MIC against normal gut microbiota; type: cell-based; settings: Bacteroides dorei (2 strains)
Excerpt: as §4

[1] = MIC against normal gut microbiota; type: cell-based
Excerpt: as §4

Escherichia coli = assay: MIC against normal gut microbiota; type: cell-based; settings: Escherichia coli (1 strain)
Excerpt: as §4

Lactobacillus brevis = assay: MIC against normal gut microbiota; type: cell-based; settings: Lactobacillus brevis (1 strain)
Excerpt: as §4

[2] = tested on: Bifidobacterium angulatum; assay: MIC against normal gut microbiota; type: cell-based; settings: Bifidobacterium angulatum (1 strain)
Excerpt: as §4

L. crispatus = assay: MIC against commensal vaginal Lactobacillus strains; type: cell-based, Lactobacillus crispatus; settings: for MIC: Lactobacillus crispatus; for MIC Range: Table 6, L. crispatus (3 strains)
Excerpt: as §1, §2

L. jensenii = assay: as above; type: cell-based, Lactobacillus jensenii; settings: for MIC: Lactobacillus jensenii; for MIC Range: Table 6, L. jensenii (7 strains)
Excerpt: as §1, §2

N. gonorrhoeae [3] = assay: Drug library screen against N. gonorrhoeae; type: cell-based, Neisseria gonorrhoeae; settings: Johns Hopkins Clinical Compounds Library, MCE FDA-Approved Drug Library, Pharmakon library; killing in clinical range
Excerpt: To identify drugs capable of killing Neisseria gonorrhoeae, the Johns Hopkins Clinical Compounds Library (1514), the MCE FDA-Approved Drug Library (2441), and the Pharmakon library (1600) were screened against N. gonorrhoeae. Positive hits that are capable of killing Neisseria gonorrhoeae in clinical range were identified (itraconazole, ravuconazole and isavuconazole).

N. gonorrhoeae [4] = assay: Post-antibiotic effect (PAE) against N. gonorrhoeae; type: cell-based, Neisseria gonorrhoeae; settings: 1 h exposure at 10×MIC
Excerpt: Determining the PAE of a new antimicrobial is an important step for dosing and has clinical importance.

[5] = tested on: resistant N. gonorrhoeae isolates; assay: MIC against resistant N. gonorrhoeae isolates by agar dilution; type: cell-based, Neisseria gonorrhoeae
L. johnsonii = assay: MIC against commensal vaginal Lactobacillus strains; type: cell-based, Lactobacillus johnsonii; settings: for MIC: Lactobacillus johnsonii, L. johnsonii HM-643; for MIC Range: Table 6, L. johsonii (2 strains)
Excerpt: as §1, §2

[6] = from single dose; cited from earlier work
[7] = tested on: commensal vaginal lactobacilli strains; assay: MIC against all commensal vaginal Lactobacillus strains tested; type: cell-based, Lactobacillus spp.; settings: Lactobacillus; all strains of lactobacilli (Example 1 text); read-out: MIC
Excerpt: as §1, §2

N. meingitidis = assay: MIC against Neisseria spp.; type: cell-based, Neisseria meningitidis; settings: N. meingitidis (5 strains)
N. gonorrhoeae isolates = assay: MIC against panel of N. gonorrhoeae clinical isolates; type: cell-based, Neisseria gonorrhoeae; settings: for MIC50: read-out: MIC50; for MIC90: read-out: MIC90
[8] = Bacteroides adolescentis (2 strains)
[9] = Neisseria gonorrhoeae, Table 1, 104 N. gonorrhoeae isolates
[10] = Neisseria gonorrhoeae, Table 3, 103 N. gonorrhoeae isolates with different resistance profiles
[11] = Neisseria gonorrhoeae, panel of 84 N. gonorrhoeae clinical isolates
[12] = Table 3, 103 N. gonorrhoeae isolates with different resistance profiles

Compound: C[C@@H](c1nc(-c2ccc(C#N)cc2)cs1)[C@](O)(Cn1cncn1)c1ccc(F)cc1F [Ravuconazole]
- MIC (L. gasseri; L. gasseri HM-407): > 256 µg/mL
- MIC (L. gasseri; L. gasseri HM-642): > 256 µg/mL
- MIC (L. gasseri; L. gasseri HM-644): > 256 µg/mL
- MIC (L. gasseri; L. gasseri HM-647): > 256 µg/mL
- MIC Range (L. gasseri): ≥256 µg/mL
- MIC Range (N. mucosa): 0.125 µg/mL (≈ 0.286 µM)
- MIC Range (N. flavescens): 0.125 µg/mL (≈ 0.286 µM)
- MIC Range (N. lactamica): 0.03 µg/mL (≈ 0.0686 µM)
- MIC Range (Bacteroides fragilis): >256 µg/mL
- MIC Range (Lactobacillus casei): >256 µg/mL
- MIC Range (Staphylococcus aureus): >256 µg/mL
- MIC Range (Enterococcus faecium): >256 µg/mL
- MIC Range (Lactobacillus rhamnosus): >256 µg/mL
- MIC Range (Enterococcus faecalis): >256 µg/mL
- MIC Range (Bacteroides dorei): >256 µg/mL
- MIC Range [1, 8]: >256 µg/mL
- MIC Range ([1]; Bacteroides breve (2 strains)): >256 µg/mL
- MIC Range ([1]; Bacteroides longum (2 strains)): >256 µg/mL
- MIC Range (Escherichia coli): >256 µg/mL
- MIC Range (Lactobacillus brevis): >256 µg/mL
- MIC Range [2]: >256 µg/mL
- MIC (L. crispatus; L. crispatus HM-103): > 256 µg/mL
- MIC (L. crispatus; L. crispatus HM-371): > 256 µg/mL
- MIC (L. crispatus; L. crispatus HM-638): > 256 µg/mL
- MIC Range (L. crispatus): ≥256 µg/mL
- MIC (L. jensenii; L. jensenii HM-105): > 256 µg/mL
- MIC (L. jensenii; L. jensenii HM-372): > 256 µg/mL
- MIC (L. jensenii; L. jensenii HM-374): > 256 µg/mL
- MIC (L. jensenii; L. jensenii HM-639): > 256 µg/mL
- MIC (L. jensenii; L. jensenii HM-640): > 256 µg/mL
- MIC (L. jensenii; L. jensenii HM-645): > 256 µg/mL
- MIC (L. jensenii; L. jensenii HM-646): > 256 µg/mL
- MIC Range (L. jensenii): ≥256 µg/mL
- screening outcome (N. gonorrhoeae [3]): Positive hits
- PAE (N. gonorrhoeae [4]; strain FA 1090): 12 h
- PAE (N. gonorrhoeae [4]; strain WHO P): >16 h
- PAE (N. gonorrhoeae [4]; strain WHO Y): 16 h
- MIC ([5]; strain CDC-174, agar dilution): 0.25 µg/mL (≈ 0.571 µM)
- MIC ([5]; strain CDC-179, agar dilution): 0.06 µg/mL (≈ 0.137 µM)
- MIC ([5]; strain CDC-181, agar dilution): 0.25 µg/mL (≈ 0.571 µM)
- MIC ([5]; strain WHO-L, agar dilution): 0.25 µg/mL (≈ 0.571 µM)
- MIC ([5]; strain WHO-X, agar dilution): 0.25 µg/mL (≈ 0.571 µM)
- MIC ([5]; strain WHO-Y, agar dilution): 0.25 µg/mL (≈ 0.571 µM)
- MIC ([5]; strain WHO-Z, agar dilution): 0.25 µg/mL (≈ 0.571 µM)
- MIC (L. johnsonii): > 256 µg/mL
- MIC Range (L. johnsonii): ≥256 µg/mL
- half-life [6]: up to 8 days
- MIC [7]: > 256 µg/mL
- MIC Range (N. meingitidis): 0.004 to 0.008 µg/mL
- MIC50 (N. gonorrhoeae isolates; [9]): 0.03 µg/mL (≈ 0.0686 µM)
- MIC90 (N. gonorrhoeae isolates; [9]): 0.06 µg/mL (≈ 0.137 µM)
- MIC50 (N. gonorrhoeae isolates; [10]): 0.03 µg/mL (≈ 0.0686 µM)
- MIC90 (N. gonorrhoeae isolates; [10]): 0.06 µg/mL (≈ 0.137 µM)
- MIC50 (N. gonorrhoeae isolates; [11]): 0.03 µg/mL (≈ 0.0686 µM)
- MIC90 (N. gonorrhoeae isolates; [11]): 0.06 µg/mL (≈ 0.137 µM)
- MIC (N. gonorrhoeae isolates; Neisseria gonorrhoeae, 103 N. gonorrhoeae isolates, read-out: highest MIC value): 0.25 µg/mL (≈ 0.571 µM)
- MIC Range (N. gonorrhoeae isolates; [12]): 0.002 to 0.25 µg/mL
- fold more potent antimicrobial activity than isavuconazole (N. gonorrhoeae isolates; from Table 3 and Table 8): ≥ 125 fold

Compound: CCC(C)n1ncn(-c2ccc(N3CCN(c4ccc(OCC5COC(Cn6cncn6)(c6ccc(Cl)cc6Cl)O5)cc4)CC3)cc2)c1=O (stereo not shown) [Itraconazole]
- MIC (L. gasseri; L. gasseri HM-407): > 256 µg/mL
- MIC (L. gasseri; L. gasseri HM-642): > 256 µg/mL
- MIC (L. gasseri; L. gasseri HM-644): > 256 µg/mL
- MIC (L. gasseri; L. gasseri HM-647): > 256 µg/mL
- MIC Range (L. gasseri): ≥256 µg/mL
- MIC Range (N. mucosa): 64 µg/mL (≈ 90.7 µM)
- MIC Range (N. flavescens): 64 µg/mL (≈ 90.7 µM)
- MIC Range (N. lactamica): 4 µg/mL (≈ 5.67 µM)
- MIC Range (Bacteroides fragilis): >256 µg/mL
- MIC Range (Lactobacillus casei): >256 µg/mL
- MIC Range (Staphylococcus aureus): >256 µg/mL
- MIC Range (Enterococcus faecium): >256 µg/mL
- MIC Range (Lactobacillus rhamnosus): >256 µg/mL
- MIC Range (Enterococcus faecalis): >256 µg/mL
- MIC Range (Bacteroides dorei): >256 µg/mL
- MIC Range [1, 8]: >256 µg/mL
- MIC Range ([1]; Bacteroides breve (2 strains)): >256 µg/mL
- MIC Range ([1]; Bacteroides longum (2 strains)): >256 µg/mL
- MIC Range (Escherichia coli): >256 µg/mL
- MIC Range (Lactobacillus brevis): >256 µg/mL
- MIC Range [2]: >256 µg/mL
- MIC (L. crispatus; L. crispatus HM-103): > 256 µg/mL
- MIC (L. crispatus; L. crispatus HM-371): > 256 µg/mL
- MIC (L. crispatus; L. crispatus HM-638): > 256 µg/mL
- MIC Range (L. crispatus): ≥256 µg/mL
- MIC (L. jensenii; L. jensenii HM-105): > 256 µg/mL
- MIC (L. jensenii; L. jensenii HM-372): > 256 µg/mL
- MIC (L. jensenii; L. jensenii HM-374): > 256 µg/mL
- MIC (L. jensenii; L. jensenii HM-639): > 256 µg/mL
- MIC (L. jensenii; L. jensenii HM-640): > 256 µg/mL
- MIC (L. jensenii; L. jensenii HM-645): > 256 µg/mL
- MIC (L. jensenii; L. jensenii HM-646): > 256 µg/mL
- MIC Range (L. jensenii): ≥256 µg/mL
- PAE (N. gonorrhoeae [4]; strain FA 1090): 4 h
- PAE (N. gonorrhoeae [4]; strain WHO P): 4 h
- PAE (N. gonorrhoeae [4]; strain WHO Y): 4 h
- MIC (L. johnsonii): > 256 µg/mL
- MIC Range (L. johnsonii): ≥256 µg/mL
- MIC Range (N. meingitidis): 0.125 to 1 µg/mL
- MIC50 (N. gonorrhoeae isolates; [9]): 1 µg/mL (≈ 1.42 µM)
- MIC90 (N. gonorrhoeae isolates; [9]): 2 µg/mL (≈ 2.83 µM)
- MIC50 (N. gonorrhoeae isolates; [10]): 1 µg/mL (≈ 1.42 µM)
- MIC90 (N. gonorrhoeae isolates; [10]): 2 µg/mL (≈ 2.83 µM)
- MIC Range (N. gonorrhoeae isolates; Table 1, 104 N. gonorrhoeae isolates): 0.03 to 4 µg/mL
- MIC Range (N. gonorrhoeae isolates; [12]): 0.03 to 8 µg/mL
